Oligonucleotides are written 5' to 3', each unit as a sugar letter and its base; * is a phosphorothioate linkage, no mark a phosphodiester; rarer units and linkages stand in square brackets, end groups in braces. Plain capitals give the bases only. d = 2'-deoxy (DNA); r = 2'-OH (RNA)
Also: test concentration or dose not given here.

The target in the data set is P2rx2 (rat). In words: reporter assay of Huesken 2005. The conditions noted are these: siRNA. (In general: In a reporter assay the amount or activity of a reporter protein is the signal.)
For the substance “sense rGrCrCrCrGrGrUrGrGrArGrGrArUrGrGrArArCdTdT / antisense rGrUrUrCrCrArUrCrCrUrCrCrArCrCrGrGrGrCdAdC”, the normalised inhibition (eCFP-eYFP dual reporter) was found to be 48.4%.

For “sense rUrCrArArGrUrArGrArUrGrGrCrCrUrGrUrGrAdTdT / antisense rUrCrArCrArGrGrCrCrArUrCrUrArCrUrUrGrAdGdG”, the normalised inhibition (eCFP-eYFP dual reporter) is 67.1%.

As for “sense rUrGrArGrArArGrGrCrArGrGrArGrArGrArArCdTdT / antisense rGrUrUrCrUrCrUrCrCrUrGrCrCrUrUrCrUrCrAdAdC”, the normalised inhibition (eCFP-eYFP dual reporter) was 32.3%.

“sense rUrUrGrCrCrArArGrUrArUrUrArCrArArGrArUdTdT / antisense rArUrCrUrUrGrUrArArUrArCrUrUrGrGrCrArAdAdC” gave a normalised inhibition (eCFP-eYFP dual reporter) of 56.7%.

In turn, “sense rCrArArGrGrCrArArUrGrGrGrArUrUrCrGrCrAdTdT / antisense rUrGrCrGrArArUrCrCrCrArUrUrGrCrCrUrUrGdCdA” came in with a normalised inhibition (eCFP-eYFP dual reporter) of 64.4%.

“sense rCrCrGrGrArGrArGrCrUrCrCrArUrCrArUrCrAdTdT / antisense rUrGrArUrGrArUrGrGrArGrCrUrCrUrCrCrGrGdTdC” registered a normalised inhibition (eCFP-eYFP dual reporter) of 54.2%.

For the substance “sense rCrUrCrCrArUrCrGrGrGrGrUrGrGrGrCrUrCrCdTdT / antisense rGrGrArGrCrCrCrArCrCrCrCrGrArUrGrGrArGdGdT”, the normalised inhibition (eCFP-eYFP dual reporter) worked out at 38.5%.

The substance “sense rCrUrGrArCrArArCrCrArUrUrUrUrCrUrGrGrGdTdT / antisense rCrCrCrArGrArArArArUrGrGrUrUrGrUrCrArGdAdA” gave a normalised inhibition (eCFP-eYFP dual reporter) of 40.3%.

“sense rGrCrArUrCrArUrCrArCrCrArGrGrArUrCrGrAdTdT / antisense rUrCrGrArUrCrCrUrGrGrUrGrArUrGrArUrGrCdTdG”: the normalised inhibition (eCFP-eYFP dual reporter) turned out to be 78.5%.

As for “sense rCrUrCrUrGrArCrUrGrArGrCrArGrGrUrGrGrUdTdT / antisense rArCrCrArCrCrUrGrCrUrCrArGrUrCrArGrArGdCdA”, the normalised inhibition (eCFP-eYFP dual reporter) was determined as 46.8%.

Turning to “sense rGrGrUrGrCrGrGrArArUrCrGrGrCrGrCrCrUrGdTdT / antisense rCrArGrGrCrGrCrCrGrArUrUrCrCrGrCrArCrCdAdC”, the normalised inhibition (eCFP-eYFP dual reporter) was determined as 69.3%.

For the substance “sense rCrArCrCrArCrUrCrGrArArCrUrCrUrCrArUrCdTdT / antisense rGrArUrGrArGrArGrUrUrCrGrArGrUrGrGrUrGdGdT”, the normalised inhibition (eCFP-eYFP dual reporter) worked out at 64.7%.

In turn, “sense rGrGrGrArArArUrUrCrArGrUrCrUrCrArUrUrCdTdT / antisense rGrArArUrGrArGrArCrUrGrArArUrUrUrCrCrCdTdG” registered a normalised inhibition (eCFP-eYFP dual reporter) of 72.6%.

The substance “sense rArGrUrCrArUrCrArUrCrArArCrUrGrGrArArCdTdT / antisense rGrUrUrCrCrArGrUrUrGrArUrGrArUrGrArCrUdCdC” displayed a normalised inhibition (eCFP-eYFP dual reporter) of 33.7%.

“sense rCrUrUrGrGrCrCrArGrCrArUrArUrGrGrGrArCdTdT / antisense rGrUrCrCrCrArUrArUrGrCrUrGrGrCrCrArArGdTdG” yielded a normalised inhibition (eCFP-eYFP dual reporter) of 52%.

“sense rUrArCrCrUrCrArArGrCrArUrUrGrCrArCrArUdTdT / antisense rArUrGrUrGrCrArArUrGrCrUrUrGrArGrGrUrAdGdT”: the normalised inhibition (eCFP-eYFP dual reporter) came to 72.3%.

In the case of “sense rCrUrCrCrUrUrCrCrUrGrUrGrUrGrArCrUrGrGdTdT / antisense rCrCrArGrUrCrArCrArCrArGrGrArArGrGrArGdCdC”, the normalised inhibition (eCFP-eYFP dual reporter) came out at 47.5%.

In the case of “sense rArGrGrArUrCrGrArGrGrUrUrArCrCrCrCrUrUdTdT / antisense rArArGrGrGrGrUrArArCrCrUrCrGrArUrCrCrUdGdG”, the normalised inhibition (eCFP-eYFP dual reporter) was determined as 76.8%.

With “sense rArCrArArGrArUrArArArCrGrGrCrArCrUrArCdTdT / antisense rGrUrArGrUrGrCrCrGrUrUrUrArUrCrUrUrGrUdAdA”, the normalised inhibition (eCFP-eYFP dual reporter) came out at 50.6%.

“sense rArArCrArArGrCrUrCrUrArCrArGrCrCrArUrAdTdT / antisense rUrArUrGrGrCrUrGrUrArGrArGrCrUrUrGrUrUdTdT” yielded a normalised inhibition (eCFP-eYFP dual reporter) of 76.6%.

“sense rArGrGrCrUrGrGrGrUrUrUrCrArUrUrGrUrUrGdTdT / antisense rCrArArCrArArUrGrArArArCrCrCrArGrCrCrUdGdA” had a normalised inhibition (eCFP-eYFP dual reporter) of 64.9%.

Turning to “sense rUrCrArGrCrCrArCrCrCrArGrCrCrCrUrCrCrAdTdT / antisense rUrGrGrArGrGrGrCrUrGrGrGrUrGrGrCrUrGrAdTdC”, the normalised inhibition (eCFP-eYFP dual reporter) worked out at 51.2%.

Consider “sense rUrCrArUrCrArArGrArArCrArGrCrArUrCrCrAdTdT / antisense rUrGrGrArUrGrCrUrGrUrUrCrUrUrGrArUrGrAdGdG”, for which the normalised inhibition (eCFP-eYFP dual reporter) came out at 53.7%.

Take “sense rCrArCrUrArCrUrCrCrCrArGrGrArUrCrArGrCdTdT / antisense rGrCrUrGrArUrCrCrUrGrGrGrArGrUrArGrUrGdAdC”: the normalised inhibition (eCFP-eYFP dual reporter) came out at 46.4%.

In turn, “sense rUrCrUrCrArUrCrCrUrGrCrUrUrUrArCrUrUrCdTdT / antisense rGrArArGrUrArArArGrCrArGrGrArUrGrArGrAdAdG” gave a normalised inhibition (eCFP-eYFP dual reporter) of 61.3%.

“sense rUrCrArUrCrArArUrCrUrGrGrCrCrArCrUrGrCdTdT / antisense rGrCrArGrUrGrGrCrCrArGrArUrUrGrArUrGrAdTdG” showed a normalised inhibition (eCFP-eYFP dual reporter) of 43.1%.

In the case of “sense rCrUrArCrCrCrCrArArGrUrUrCrArArGrUrUrCdTdT / antisense rGrArArCrUrUrGrArArCrUrUrGrGrGrGrUrArGdTdG”, the normalised inhibition (eCFP-eYFP dual reporter) came to 62.8%.

On to “sense rUrUrCrArCrArGrCrUrCrUrArCrCrUrGrCrCrAdTdT / antisense rUrGrGrCrArGrGrUrArGrArGrCrUrGrUrGrArAdCdC”, for which the normalised inhibition (eCFP-eYFP dual reporter) was determined as 51.7%.

In the case of “sense rUrCrGrArUrGrUrUrArUrCrGrUrGrCrArUrGrGdTdT / antisense rCrCrArUrGrCrArCrGrArUrArArCrArUrCrGrAdTdT”, the normalised inhibition (eCFP-eYFP dual reporter) is 57.4%.

“sense rUrCrCrCrArGrArCrCrUrUrGrGrGrArArCrArUdTdT / antisense rArUrGrUrUrCrCrCrArArGrGrUrCrUrGrGrGrAdAdG” registered a normalised inhibition (eCFP-eYFP dual reporter) of 50.4%.

In turn, “sense rCrArUrUrGrUrUrGrArGrArArGrGrCrArGrGrAdTdT / antisense rUrCrCrUrGrCrCrUrUrCrUrCrArArCrArArUrGdAdA” returned a normalised inhibition (eCFP-eYFP dual reporter) of 61.4%.

Substance “sense rGrArGrGrArArUrArCrGrUrArArArGrCrCrCrCdTdT / antisense rGrGrGrGrCrUrUrUrArCrGrUrArUrUrCrCrUrCdCdA” returned a normalised inhibition (eCFP-eYFP dual reporter) of 34.9%.

Substance “sense rArCrUrArCrCrArCrCrArCrUrCrGrArArCrUrCdTdT / antisense rGrArGrUrUrCrGrArGrUrGrGrUrGrGrUrArGrUdGdC” displayed a normalised inhibition (eCFP-eYFP dual reporter) of 43.6%.

“sense rArArCrUrGrUrGrArCrCrUrGrGrArCrUrUrGrUdTdT / antisense rArCrArArGrUrCrCrArGrGrUrCrArCrArGrUrUdCdC” came in with a normalised inhibition (eCFP-eYFP dual reporter) of 38.6%.

Take “sense rGrGrGrArUrUrCrGrCrArCrArGrGrGrCrArCrUdTdT / antisense rArGrUrGrCrCrCrUrGrUrGrCrGrArArUrCrCrCdAdT”: the normalised inhibition (eCFP-eYFP dual reporter) is 66%.

As for “sense rGrGrCrArGrGrGrArArArUrUrCrArGrUrCrUrCdTdT / antisense rGrArGrArCrUrGrArArUrUrUrCrCrCrUrGrCrCdTdG”, the normalised inhibition (eCFP-eYFP dual reporter) is 51.5%.

“sense rGrGrArArGrArCrArArArGrUrGrUrGrGrGrArCdTdT / antisense rGrUrCrCrCrArCrArCrUrUrUrGrUrCrUrUrCrCdGdA” yielded a normalised inhibition (eCFP-eYFP dual reporter) of 69.5%.

For “sense rCrGrGrArArGrArCrArArArGrUrGrUrGrGrGrAdTdT / antisense rUrCrCrCrArCrArCrUrUrUrGrUrCrUrUrCrCrGdAdC”, the normalised inhibition (eCFP-eYFP dual reporter) came to 64.6%.

“sense rGrArArArUrUrCrArGrUrCrUrCrArUrUrCrCrCdTdT / antisense rGrGrGrArArUrGrArGrArCrUrGrArArUrUrUrCdCdC”: the normalised inhibition (eCFP-eYFP dual reporter) came to 39.7%.

In turn, “sense rCrArUrCrArUrCrArCrCrArArArGrUrCrArArGdTdT / antisense rCrUrUrGrArCrUrUrUrGrGrUrGrArUrGrArUrGdGdA” displayed a normalised inhibition (eCFP-eYFP dual reporter) of 71.5%.

With “sense rUrGrGrCrUrGrUrCrCrArGrUrCrUrCrCrUrCrGdTdT / antisense rCrGrArGrGrArGrArCrUrGrGrArCrArGrCrCrAdGdT”, the normalised inhibition (eCFP-eYFP dual reporter) is 67.4%.

The substance “sense rArCrGrUrCrUrUrCrArUrCrGrUrGrCrArGrArAdTdT / antisense rUrUrCrUrGrCrArCrGrArUrGrArArGrArCrGrUdAdC” had a normalised inhibition (eCFP-eYFP dual reporter) of 85.2%.

Turning to “sense rArGrUrCrArCrUrArCrUrCrCrCrArGrGrArUrCdTdT / antisense rGrArUrCrCrUrGrGrGrArGrUrArGrUrGrArCrUdAdG”, the normalised inhibition (eCFP-eYFP dual reporter) worked out at 64.6%.

In turn, “sense rArGrCrArUrArUrGrGrGrArCrArArArGrArCrCdTdT / antisense rGrGrUrCrUrUrUrGrUrCrCrCrArUrArUrGrCrUdGdG” gave a normalised inhibition (eCFP-eYFP dual reporter) of 53.1%.

In turn, “sense rArCrUrCrCrCrArGrGrArUrCrArGrCrCrArCrCdTdT / antisense rGrGrUrGrGrCrUrGrArUrCrCrUrGrGrGrArGrUdAdG” had a normalised inhibition (eCFP-eYFP dual reporter) of 44.7%.

On to “sense rArCrCrArGrGrArCrArGrCrGrArGrArCrCrGrGdTdT / antisense rCrCrGrGrUrCrUrCrGrCrUrGrUrCrCrUrGrGrUdAdG”, for which the normalised inhibition (eCFP-eYFP dual reporter) amounted to 49.5%.

In turn, “sense rArCrArGrCrUrCrUrArCrCrUrGrCrCrArUrUrCdTdT / antisense rGrArArUrGrGrCrArGrGrUrArGrArGrCrUrGrUdGdA” displayed a normalised inhibition (eCFP-eYFP dual reporter) of 42.3%.

In turn, “sense rUrCrGrUrGrCrArGrArArArArGrCrUrArCrCrAdTdT / antisense rUrGrGrUrArGrCrUrUrUrUrCrUrGrCrArCrGrAdTdG” yielded a normalised inhibition (eCFP-eYFP dual reporter) of 74.2%.

With “sense rGrUrGrUrCrArUrUrGrGrArGrUrCrArUrCrArUdTdT / antisense rArUrGrArUrGrArCrUrCrCrArArUrGrArCrArCdCdG”, the normalised inhibition (eCFP-eYFP dual reporter) turned out to be 59%.
